Our source for the inhibition and residual activity values is ChEMBL document CHEMBL5696442, “Discovery of type II inhibitors of TGFβ-activated kinase 1 (TAK1) and mitogen-activated protein kinase kinase kinase kinase 2 (MAP4K2)” (J Med Chem, 2015).

Calls of active or inactive are those of the source. The rule behind the calls is not given here.

Experiment [1] addresses T1, Dual specificity mitogen-activated protein kinase kinase 4 (Homo sapiens) (UniProt P45985).
T1 sequence (whole entry): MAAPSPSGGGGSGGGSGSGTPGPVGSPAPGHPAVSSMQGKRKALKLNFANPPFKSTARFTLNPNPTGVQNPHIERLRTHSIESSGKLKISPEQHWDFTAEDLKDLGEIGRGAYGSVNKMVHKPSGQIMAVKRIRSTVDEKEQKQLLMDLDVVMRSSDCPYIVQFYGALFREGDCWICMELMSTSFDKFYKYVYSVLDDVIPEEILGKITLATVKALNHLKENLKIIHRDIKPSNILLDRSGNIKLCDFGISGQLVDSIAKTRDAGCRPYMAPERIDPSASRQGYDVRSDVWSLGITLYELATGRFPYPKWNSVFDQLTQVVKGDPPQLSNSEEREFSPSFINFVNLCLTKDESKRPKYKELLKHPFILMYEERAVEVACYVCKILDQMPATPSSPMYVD
Kind of experiment: Inhibition of MAP2K4 Lys2 labeling site in human Huh-7 cell lysate at 1 uM by KiNativ Profiling analysis relative to control. Format: subcellular.

Experiment [2] addresses Activin receptor type-1 (Homo sapiens) (UniProt Q04771). Kind of experiment: Inhibition of ACVR1 (unknown origin) at 1 uM by Ambit Kinomescan binding assay relative to control.
Experiment [3] concerns the target Serine/threonine-protein kinase TNNI3K (Homo sapiens) (UniProt Q59H18). Kind of experiment: Inhibition of TNNI3K (unknown origin) at 1 uM by Ambit Kinomescan binding assay relative to control.
Experiment [4] addresses T2, Inhibitor of nuclear factor kappa-B kinase subunit beta (Homo sapiens) (UniProt O14920).
T2 sequence (whole entry): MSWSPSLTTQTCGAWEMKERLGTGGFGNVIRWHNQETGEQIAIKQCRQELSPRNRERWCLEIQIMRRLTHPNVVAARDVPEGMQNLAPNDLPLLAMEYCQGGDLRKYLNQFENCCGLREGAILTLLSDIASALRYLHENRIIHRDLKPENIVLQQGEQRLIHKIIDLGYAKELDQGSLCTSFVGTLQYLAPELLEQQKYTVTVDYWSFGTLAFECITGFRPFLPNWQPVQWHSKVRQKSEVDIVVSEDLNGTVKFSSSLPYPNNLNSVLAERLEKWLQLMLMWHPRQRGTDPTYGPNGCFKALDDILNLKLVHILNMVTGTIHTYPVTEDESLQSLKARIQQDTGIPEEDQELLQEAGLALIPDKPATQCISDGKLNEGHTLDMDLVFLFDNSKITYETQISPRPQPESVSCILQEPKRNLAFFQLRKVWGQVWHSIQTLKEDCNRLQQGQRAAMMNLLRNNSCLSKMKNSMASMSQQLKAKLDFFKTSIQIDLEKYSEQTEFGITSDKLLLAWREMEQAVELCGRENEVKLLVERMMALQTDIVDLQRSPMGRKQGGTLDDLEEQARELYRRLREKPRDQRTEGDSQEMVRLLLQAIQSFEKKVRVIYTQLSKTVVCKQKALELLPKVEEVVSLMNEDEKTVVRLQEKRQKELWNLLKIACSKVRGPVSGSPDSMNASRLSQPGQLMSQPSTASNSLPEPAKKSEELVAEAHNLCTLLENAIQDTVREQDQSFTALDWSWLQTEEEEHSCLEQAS
Kind of experiment: Inhibition of IKKb Lys2 labeling site in human A-375 cells at 5 uM by KiNativ Profiling analysis relative to control. Format: cell-based.

Experiment [5] concerns the target Platelet-derived growth factor receptor alpha (Homo sapiens) (UniProt P16234). As to the kind of experiment: Inhibition of PDGFRA (unknown origin) at 1 uM by Ambit Kinomescan binding assay relative to control; values are per cent of control.
The target of experiment [6] is Mitogen-activated protein kinase kinase kinase kinase 3 (Homo sapiens) (UniProt Q8IVH8). As to the kind of experiment: Inhibition of MAP4K3 (unknown origin) at 10 uM by Ambit Kinomescan binding assay relative to control.
Sequence of Mitogen-activated protein kinase kinase kinase kinase 3 (Homo sapiens) (Q8IVH8 whole entry): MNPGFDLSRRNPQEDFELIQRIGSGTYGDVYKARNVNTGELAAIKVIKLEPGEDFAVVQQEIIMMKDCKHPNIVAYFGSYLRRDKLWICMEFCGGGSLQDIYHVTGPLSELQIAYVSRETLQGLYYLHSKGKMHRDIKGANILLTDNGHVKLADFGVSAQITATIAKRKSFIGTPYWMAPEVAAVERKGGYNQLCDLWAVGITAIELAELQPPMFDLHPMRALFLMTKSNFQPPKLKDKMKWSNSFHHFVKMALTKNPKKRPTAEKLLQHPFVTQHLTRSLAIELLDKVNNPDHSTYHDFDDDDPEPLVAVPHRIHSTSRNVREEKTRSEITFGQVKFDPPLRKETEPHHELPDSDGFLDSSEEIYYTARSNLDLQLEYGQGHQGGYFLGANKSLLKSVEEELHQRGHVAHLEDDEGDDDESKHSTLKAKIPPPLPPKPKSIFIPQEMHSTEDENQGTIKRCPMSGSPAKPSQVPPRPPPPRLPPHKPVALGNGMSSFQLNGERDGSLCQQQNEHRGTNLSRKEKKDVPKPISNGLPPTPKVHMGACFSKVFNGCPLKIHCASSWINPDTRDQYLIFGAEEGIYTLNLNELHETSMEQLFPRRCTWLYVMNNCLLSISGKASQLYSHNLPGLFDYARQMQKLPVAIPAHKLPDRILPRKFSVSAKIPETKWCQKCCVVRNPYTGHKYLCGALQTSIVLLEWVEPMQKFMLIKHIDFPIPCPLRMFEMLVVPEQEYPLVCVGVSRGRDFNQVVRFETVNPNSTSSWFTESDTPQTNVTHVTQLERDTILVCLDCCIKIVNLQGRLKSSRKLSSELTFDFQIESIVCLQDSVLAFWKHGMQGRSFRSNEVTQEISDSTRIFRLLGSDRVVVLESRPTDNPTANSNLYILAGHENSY
Experiment [7] deals with Serine/threonine-protein kinase pim-2 (Homo sapiens) (UniProt Q9P1W9). Kind of experiment: Inhibition of PIM2 (unknown origin) at 10 uM by Ambit Kinomescan binding assay.
Sequence of Serine/threonine-protein kinase pim-2 (Homo sapiens) (Q9P1W9 whole entry, looked up): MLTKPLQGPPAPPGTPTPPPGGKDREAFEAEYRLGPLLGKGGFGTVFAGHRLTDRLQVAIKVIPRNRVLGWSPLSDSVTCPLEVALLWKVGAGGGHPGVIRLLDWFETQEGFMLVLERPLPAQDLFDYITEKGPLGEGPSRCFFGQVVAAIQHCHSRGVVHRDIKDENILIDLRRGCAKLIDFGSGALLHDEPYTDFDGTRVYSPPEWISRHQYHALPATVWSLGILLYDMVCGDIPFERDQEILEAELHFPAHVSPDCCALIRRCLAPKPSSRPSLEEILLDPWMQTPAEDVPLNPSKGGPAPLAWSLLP
The target in experiment [8] is Calcium/calmodulin-dependent protein kinase type II subunit delta (Homo sapiens) (UniProt Q13557). As to the kind of experiment: Inhibition of CamK2d K1 labeling site harbouring IPTGQEYAAKIINTK in human Huh-7 cells at 10 uM by KiNativ Profiling analysis relative to control. The format is cell-based.
Sequence of Calcium/calmodulin-dependent protein kinase type II subunit delta (Homo sapiens) (Q13557 whole entry): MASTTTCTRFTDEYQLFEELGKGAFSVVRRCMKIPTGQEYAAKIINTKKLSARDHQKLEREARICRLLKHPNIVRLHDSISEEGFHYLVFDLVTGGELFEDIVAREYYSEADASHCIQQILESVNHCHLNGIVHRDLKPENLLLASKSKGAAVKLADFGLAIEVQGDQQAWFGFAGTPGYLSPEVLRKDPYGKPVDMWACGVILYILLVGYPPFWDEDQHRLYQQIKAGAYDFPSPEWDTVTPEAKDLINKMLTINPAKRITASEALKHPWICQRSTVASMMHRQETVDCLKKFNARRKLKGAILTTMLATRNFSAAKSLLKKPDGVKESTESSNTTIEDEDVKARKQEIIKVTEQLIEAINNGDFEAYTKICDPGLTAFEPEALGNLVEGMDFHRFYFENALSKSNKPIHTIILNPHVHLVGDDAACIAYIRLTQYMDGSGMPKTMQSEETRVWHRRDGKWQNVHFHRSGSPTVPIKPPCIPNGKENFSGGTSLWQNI
Experiment [9] concerns the target T3, NUAK family SNF1-like kinase 1 (Homo sapiens) (UniProt O60285).
T3 sequence (whole entry): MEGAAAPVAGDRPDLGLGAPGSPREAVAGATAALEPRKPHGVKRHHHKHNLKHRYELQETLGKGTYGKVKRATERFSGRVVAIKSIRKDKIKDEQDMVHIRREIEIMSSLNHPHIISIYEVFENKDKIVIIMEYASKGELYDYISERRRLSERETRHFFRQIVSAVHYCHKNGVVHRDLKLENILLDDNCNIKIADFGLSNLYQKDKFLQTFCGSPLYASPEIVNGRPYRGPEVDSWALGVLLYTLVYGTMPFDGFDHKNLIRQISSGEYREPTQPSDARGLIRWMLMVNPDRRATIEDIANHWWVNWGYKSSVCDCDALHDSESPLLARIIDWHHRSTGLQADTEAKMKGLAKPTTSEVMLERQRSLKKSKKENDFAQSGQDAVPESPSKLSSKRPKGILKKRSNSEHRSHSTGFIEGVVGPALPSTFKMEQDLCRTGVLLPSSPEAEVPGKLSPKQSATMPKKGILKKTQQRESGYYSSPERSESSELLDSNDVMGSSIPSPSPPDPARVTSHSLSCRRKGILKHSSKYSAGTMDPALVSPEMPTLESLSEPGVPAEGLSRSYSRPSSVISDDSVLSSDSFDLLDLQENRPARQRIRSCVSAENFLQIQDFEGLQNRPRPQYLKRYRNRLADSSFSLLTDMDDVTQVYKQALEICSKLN
As to the kind of experiment: Inhibition of NuaK1 K2 labeling site in human Huh-7 cells at 10 uM by KiNativ Profiling analysis relative to control. The format is cell-based.

Experiment [10] concerns the target Serine/threonine-protein kinase 32C (Homo sapiens) (UniProt Q86UX6). Kind of experiment: Inhibition of YANK3 K2 labeling site in human Huh-7 cells at 10 uM by KiNativ Profiling analysis relative to control. Format: cell-based.

Sequence of Platelet-derived growth factor receptor alpha (Homo sapiens) (P16234 whole entry): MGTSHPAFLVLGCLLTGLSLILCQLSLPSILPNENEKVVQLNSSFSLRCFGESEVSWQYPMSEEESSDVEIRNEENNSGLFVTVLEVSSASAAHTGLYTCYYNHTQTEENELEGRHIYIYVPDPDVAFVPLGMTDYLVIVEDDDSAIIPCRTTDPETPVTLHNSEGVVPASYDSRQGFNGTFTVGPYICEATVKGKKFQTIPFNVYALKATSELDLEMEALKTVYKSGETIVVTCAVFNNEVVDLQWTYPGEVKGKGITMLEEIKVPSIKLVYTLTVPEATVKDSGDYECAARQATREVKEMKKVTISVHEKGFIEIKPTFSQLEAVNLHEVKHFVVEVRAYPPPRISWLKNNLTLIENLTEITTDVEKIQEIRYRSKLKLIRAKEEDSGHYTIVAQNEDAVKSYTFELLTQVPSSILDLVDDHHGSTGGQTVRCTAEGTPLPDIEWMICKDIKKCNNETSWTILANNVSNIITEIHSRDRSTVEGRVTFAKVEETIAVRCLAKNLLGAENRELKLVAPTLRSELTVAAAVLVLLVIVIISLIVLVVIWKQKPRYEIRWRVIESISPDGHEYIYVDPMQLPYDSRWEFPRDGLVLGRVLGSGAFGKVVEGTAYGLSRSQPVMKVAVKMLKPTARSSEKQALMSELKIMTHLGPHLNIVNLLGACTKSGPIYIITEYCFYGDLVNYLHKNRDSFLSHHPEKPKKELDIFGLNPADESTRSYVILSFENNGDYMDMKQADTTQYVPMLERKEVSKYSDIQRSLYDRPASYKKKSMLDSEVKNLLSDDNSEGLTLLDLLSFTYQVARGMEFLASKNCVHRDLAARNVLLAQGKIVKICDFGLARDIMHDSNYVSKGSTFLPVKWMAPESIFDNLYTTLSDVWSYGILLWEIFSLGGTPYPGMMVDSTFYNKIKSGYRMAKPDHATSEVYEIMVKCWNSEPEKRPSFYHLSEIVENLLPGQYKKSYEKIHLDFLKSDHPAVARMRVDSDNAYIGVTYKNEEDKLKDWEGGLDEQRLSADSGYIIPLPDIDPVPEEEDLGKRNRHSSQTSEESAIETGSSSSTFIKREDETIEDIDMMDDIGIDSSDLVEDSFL
Sequence of Serine/threonine-protein kinase 32C (Homo sapiens) (Q86UX6 whole entry): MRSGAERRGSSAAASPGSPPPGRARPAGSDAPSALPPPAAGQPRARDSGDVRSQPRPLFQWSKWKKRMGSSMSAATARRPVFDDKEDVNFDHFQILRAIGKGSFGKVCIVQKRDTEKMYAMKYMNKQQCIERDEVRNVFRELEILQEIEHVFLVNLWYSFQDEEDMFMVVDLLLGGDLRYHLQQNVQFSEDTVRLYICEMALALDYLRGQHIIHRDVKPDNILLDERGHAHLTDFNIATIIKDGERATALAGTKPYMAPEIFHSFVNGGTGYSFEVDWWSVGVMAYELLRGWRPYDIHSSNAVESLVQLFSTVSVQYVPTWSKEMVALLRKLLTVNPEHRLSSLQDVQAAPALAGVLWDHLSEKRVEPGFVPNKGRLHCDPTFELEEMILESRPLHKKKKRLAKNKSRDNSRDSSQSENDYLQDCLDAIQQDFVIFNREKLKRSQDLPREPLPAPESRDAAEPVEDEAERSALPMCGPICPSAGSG
Sequence of Serine/threonine-protein kinase TNNI3K (Homo sapiens) (Q59H18 whole entry): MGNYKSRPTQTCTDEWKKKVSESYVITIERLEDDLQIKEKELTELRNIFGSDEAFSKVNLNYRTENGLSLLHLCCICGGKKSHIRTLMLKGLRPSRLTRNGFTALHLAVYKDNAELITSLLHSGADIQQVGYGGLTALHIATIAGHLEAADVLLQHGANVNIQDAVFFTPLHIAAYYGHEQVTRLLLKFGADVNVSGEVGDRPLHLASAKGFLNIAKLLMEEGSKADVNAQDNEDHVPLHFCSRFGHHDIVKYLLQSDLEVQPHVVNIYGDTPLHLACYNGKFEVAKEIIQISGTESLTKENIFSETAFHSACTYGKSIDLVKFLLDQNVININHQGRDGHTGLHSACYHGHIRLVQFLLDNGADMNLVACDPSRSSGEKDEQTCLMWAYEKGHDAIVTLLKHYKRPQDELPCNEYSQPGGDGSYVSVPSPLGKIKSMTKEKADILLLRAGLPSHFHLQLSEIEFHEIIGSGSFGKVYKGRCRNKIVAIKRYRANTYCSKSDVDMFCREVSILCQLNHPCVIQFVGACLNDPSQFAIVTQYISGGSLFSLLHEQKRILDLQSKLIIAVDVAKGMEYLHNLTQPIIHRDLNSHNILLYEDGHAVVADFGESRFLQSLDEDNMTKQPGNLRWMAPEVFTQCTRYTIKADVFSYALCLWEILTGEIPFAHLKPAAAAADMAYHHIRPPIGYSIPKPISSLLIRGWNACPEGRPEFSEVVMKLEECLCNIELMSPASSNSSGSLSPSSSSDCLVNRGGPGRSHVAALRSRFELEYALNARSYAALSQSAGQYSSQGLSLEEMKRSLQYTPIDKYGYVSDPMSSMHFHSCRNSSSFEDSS
Sequence of Activin receptor type-1 (Homo sapiens) (Q04771 whole entry): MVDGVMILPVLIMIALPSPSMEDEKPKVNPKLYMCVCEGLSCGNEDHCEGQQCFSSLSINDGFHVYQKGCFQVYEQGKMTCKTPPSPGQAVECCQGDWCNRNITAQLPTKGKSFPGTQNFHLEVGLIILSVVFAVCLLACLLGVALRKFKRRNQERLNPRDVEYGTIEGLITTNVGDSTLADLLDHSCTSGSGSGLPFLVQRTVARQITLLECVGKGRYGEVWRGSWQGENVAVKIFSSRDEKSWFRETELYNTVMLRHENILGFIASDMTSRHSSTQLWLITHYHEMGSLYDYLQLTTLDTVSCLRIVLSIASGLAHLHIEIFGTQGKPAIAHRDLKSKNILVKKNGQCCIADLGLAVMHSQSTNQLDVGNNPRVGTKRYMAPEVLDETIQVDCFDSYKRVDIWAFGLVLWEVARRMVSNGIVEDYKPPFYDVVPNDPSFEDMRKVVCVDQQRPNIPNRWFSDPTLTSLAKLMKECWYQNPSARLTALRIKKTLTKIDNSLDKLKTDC

For the molecule `CNc1cc(Oc2cc(C(=O)Nc3cc(N4CCN(C)CC4)cc(C(F)(F)F)c3)ccc2C)ncn1`, the inhibition (usually the relative decrease from the control value, in per cent) in experiment [1] is -3.9%.
Take `CCN1CCN(Cc2ccc(NC(=O)c3ccc(C)c(/C=C/c4cnc5[nH]ccc5c4OC)c3)cc2C(F)(F)F)CC1`: the inhibition in experiment [2] stood at 100%; in experiment [3], 5.9%; in experiment [4], 50.5%. The residual activity (in general, the share of the control activity or signal that is left under treatment) in experiment [5] came to 2.6%.
As to `CCN1CCN(Cc2ccc(NC(=O)c3ccc(C)c(Oc4ccnc5[nH]ccc45)c3)cc2C(F)(F)F)CC1`, the inhibition was 18% in experiment [6], -7.6% in [8], 35.4% in experiment [9] and 2.5% in experiment [10]. In addition, the inhibition entry in experiment [7] is “inactive”.
